Test results reported in US9388162B2, “Substituted morphinans and the use thereof” (Purdue Pharma L.P., priority 2012, dated 2016).

What was measured:
μ-opioid receptors [1] = target: T1, μ-opioid receptors (Homo sapiens (Human), UniProt P35372); assay: μ-opioid receptor radioligand dose-displacement binding assay ([3H]-diprenorphine); conditions: mean ± SEM, read-out: Binding Affinity Opioid Receptor Ki (nM) [mean ± SEM] μ
Description: Radioligand dose-displacement binding assays for μ-opioid receptors used 0.3 nM [^3H]-diprenorphine (Perkin Elmer, Shelton, Conn.), with […] membrane protein/well in a final volume of 500 μl binding buffer (10 mM MgCl2, 1 mM EDTA, 5% DMSO, 50 mM HEPES, pH 7.4). Reactions were carried out in the absence or presence of increasing concentrations of unlabeled naloxone. All reactions were conducted in 96-deep well polypropylene plates for 2 hours at room temperature. Binding reactions were terminated by rapid filtration onto 96-well Unifilter GF/C filter plates (Perkin Elmer, Shelton, Conn.), presoaked in 0.5% polyethylenimine using a 96-well tissue harvester (Perkin Elmer, Shelton, Conn.) followed by performing three filtration washes with 500 μl of ice-cold binding buffer. Filter plates were subsequently dried at 50° C. for 2-3 hours. BetaScint scintillation cocktail (Perkin Elmer, Shelton, Conn.) was added (50 μl/well), and plates were counted using a Packard Top-Count for 1 min/well. The data were analyzed using the one-site competition curve fitting functions in GraphPad PRISM™ v. 3.0 or higher (San Diego, Calif.), or an in-house function for one-site competition curve-fitting.
(§1) The following tables provide results on the efficacy of binding and activity response of exemplified Compounds of the Invention at the μ- and κ-opioid receptors. In TABLE 3, binding affinity of certain Compounds of the Invention to the μ- and κ-opioid receptors was determined as described above. In TABLE 4, activity response of certain Compounds of the Invention to the μ- and κ-opioid receptors was determined as described above for functional assays using HEK-293 cells. In TABLE 5, activity response of certain Compounds of the Invention to the μ- and κ-opioid receptors was determined as described above using U-2 OS cells.

κ opioid receptor [2] = target: T2, κ opioid receptor (Homo sapiens (Human), UniProt P41145); assay: κ-opioid receptor [35S]GTPγS functional assay, HEK-293 cells; type: biochemical; conditions: κ GTP; for EC50: read-out: Activity Response κ EC50 (nM) [mean ± SEM]; for Emax: relative to U69,593, read-out: Activity Response κ Emax (%)
Description: (§2) Membranes from HEK-293 cells, CHO or U-2 OS cells expressing the recombinant human kappa opioid receptor (κ) were prepared by lysing cells in ice cold hypotonic buffer (2.5 mM MgCl2, 50 mM HEPES, pH 7.4) (10 mL/10 cm dish) followed by homogenization with a tissue grinder/Teflon pestle. Membranes were collected by centrifugation at 30,000×g for 15 min at 4° C. and pellets were resuspended in hypotonic buffer to a final concentration of 1-3 mg/mL. Protein concentrations were determined using the BioRad protein assay reagent with bovine serum albumen as standard. Aliquots of κ receptor membranes were stored at −80° C.
Functional [^35S]GTPγS binding assays were conducted as follows. κ opioid receptor membrane solution was prepared by sequentially adding final concentrations of 0.026 μg/μl κ membrane protein (in-house), 10 μg/mL saponin, 3 μM GDP and 0.20 nM [^35S]GTPγS to binding buffer (100 mM NaCl, 10 mM MgCl2, 20 mM HEPES, pH 7.4) on ice. The prepared membrane solution (190 μl/well) was transferred to 96-shallow well polypropylene plates containing 10 μl of 20× concentrated stock solutions of agonist prepared in DMSO. Plates were incubated for 30 min at a temperature of about 25° C. with shaking. Reactions were terminated by rapid filtration onto 96-well Unifilter GF/B filter plates (Perkin Elmer, Shelton, Conn.) using a 96-well tissue harvester (Packard) and followed by three filtration washes with 200 μl ice-cold binding buffer (10 mM NaH2PO4, 10 mM Na2HPO4, pH 7.4). Filter plates were subsequently dried at 50° C. for 2-3 hours. Fifty μl/well scintillation cocktail (Perkin Elmer, Shelton, Conn.) was added and plates were counted in a Packard Top-Count for 1 min/well.
κ GTP EC50 is the concentration of a compound providing 50% of the maximal response for the compound at a κ receptor.
κ GTP Emax (%) is the maximal effect elicited by a compound relative to the effect elicited by U69,593.
as §1, with “In” for “The following tables provide results on the efficacy of binding and activity response of exemplified Compounds of the Invention at the μ- and κ-opioid receptors. In”

[3] = target: recombinant human kappa opioid receptor (κ) (Homo sapiens (Human), UniProt P41145); assay: κ-opioid receptor radioligand dose displacement binding assay ([3H]-U69,593); conditions: mean ± SEM, read-out: Binding Affinity Opioid Receptor Ki (nM) [mean ± SEM] κ
Description: as §2
Radioligand dose displacement assays used 0.4 nM [^3H]-U69,593 (GE Healthcare, Piscataway, N.J.; 40 Ci/mmole) with 15 μg membrane protein (recombinant κ opioid receptor expressed in HEK 293 cells; in-house prep) in a final volume of 200 μl binding buffer (5% DMSO, 50 mM Trizma base, pH 7.4). Non-specific binding was determined in the presence of 10 μM unlabeled naloxone or U69,593. All reactions were performed in 96-well polypropylene plates for 1 hour at a temperature of about 25° C. Binding reactions were terminated by rapid filtration onto 96-well Unifilter GF/C filter plates (Perkin Elmer, Shelton, Conn.) presoaked in 0.5% polyethylenimine (Sigma). Harvesting was performed using a 96-well tissue harvester (Perkin Elmer, Shelton, Conn.) followed by five filtration washes with 200 μl ice-cold binding buffer. Filter plates were subsequently dried at 50° C. for 1-2 hours. Fifty μl/well scintillation cocktail (Perkin Elmer, Shelton, Conn.) was added and plates were counted in a Packard Top-Count for 1 min/well.
as §1

μ-opioid receptors [4] = target: T1, μ-opioid receptors; assay: μ-opioid receptor [35S]GTPγS functional assay, HEK-293 cells; type: biochemical; conditions: μ GTP; for EC50: read-out: Activity Response μ EC50 (nM) [mean ± SEM]; for Emax: relative to DAMGO, read-out: Activity Response μ Emax (%)
Description: [^35S]GTPγS functional assays were conducted using freshly thawed μ-receptor membranes prepared from a cell line expressing recombinant μ opioid receptor in a HEK-293, CHO or U-2 OS cell background or purchased from a commercial source (Perkin Elmer, Shelton, Conn.; or DiscovRx, Fremont, Calif.). Assay reactions were prepared by sequentially adding the following reagents to binding buffer (100 mM NaCl, 10 mM MgCl2, 20 mM HEPES, pH 7.4) on ice (final concentrations indicated): membrane protein (0.026 mg/mL), saponin ([…]), GDP ([…]) and [^35S]GTPγS (0.20 nM; Perkin Elmer, Shelton, Conn.). The prepared membrane solution (190 μl/well) was transferred to 96-shallow well polypropylene plates containing 10 μl of 20× concentrated stock solutions of the agonist [D-Ala^2, N-methyl-Phe^4 Gly-ol^5]-enkephalin (DAMGO) prepared in dimethyl sulfoxide (DMSO). Plates were incubated for 30 min at about 25° C. with shaking. Reactions were terminated by rapid filtration onto 96-well Unifilter GF/B filter plates (Perkin Elmer, Shelton, Conn.) using a 96-well tissue harvester (Perkin Elmer, Shelton, Conn.) followed by three filtration washes with 200 μl of ice-cold wash buffer (10 mM NaH2PO4, 10 mM Na2HPO4, pH 7.4). Filter plates were subsequently dried at 50° C. for 2-3 hours. BetaScint scintillation cocktail (Perkin Elmer, Shelton, Conn.) was added (50 μl/well) and plates were counted using a Packard Top-Count for 1 min/well. Data were analyzed using the sigmoidal dose-response curve fitting functions in GraphPad PRISM v. 3.0, or an in-house function for non-linear, sigmoidal dose-response curve-fitting.
μ GTP EC50 is the concentration of a compound providing 50% of the maximal response for the compound at a μ-opioid receptor.
μ GTP Emax (%) is the maximal effect elicited by a compound relative to the effect elicited by DAMGO, a standard μ agonist. Generally, the μ GTP Emax (%) value measures the efficacy of a compound to treat or prevent pain or other Conditions.
as §1

μ-opioid receptors [5] = target: T1, μ-opioid receptors; assay: μ-opioid receptor [35S]GTPγS functional assay, U-2 OS cells; type: biochemical; conditions: μ GTP; for EC50: read-out: Activity Response μ EC50 (nM) [mean ± SEM]; for Emax: relative to DAMGO, read-out: Activity Response μ Emax (%)
κ opioid receptor [6] = target: T2, κ opioid receptor; assay: κ-opioid receptor [35S]GTPγS functional assay, U-2 OS cells; type: biochemical; conditions: κ GTP; for EC50: read-out: Activity Response κ EC50 (nM) [mean ± SEM]; for Emax: relative to U69,593, read-out: Activity Response κ Emax (%)

In the case of CC(C)[C@@H]1C[C@H]2[C@H]3Cc4ccc(O)cc4[C@@]2(CCN3CC2CC2)CC1=O [Compound 73, (4bS,7S,8aR,9R)-11-(cyclopropylmethyl)-3-hydroxy-7-isopropyl-8,8a,9,10-tetrahydro-5H-9,4b-(epiminoethano)phenanthren-6(7H)-one], the Ki (μ-opioid receptors [1]) is reported as 1.98 ± 0.44 nM, the EC50 (κ opioid receptor [2]) is reported as 6.07 ± 1.92 nM and the Emax (κ opioid receptor [2]) is reported as 61 ± 8.62%. It also gave a Ki [3] of 0.32 ± 0.11 nM, an EC50 (μ-opioid receptors [4]) of 2.85 ± 0.6 nM and an Emax (μ-opioid receptors [4]) of 53.2 ± 5.71%. For the same molecule, the EC50 (μ-opioid receptors [5]) was 0.84 ± 0.13 nM, the Emax (μ-opioid receptors [5]) was 28.3 ± 4.06% and the EC50 (κ opioid receptor [6]) was 1.92 ± 0.28 nM. It also gave an Emax (κ opioid receptor [6]) of 101 ± 3.38%.
For COCC[C@H]1C[C@@]2(O)[C@H]3Cc4ccc(OC)cc4[C@@]2(CCN3CC2CC2)CC1=O [Compound 49, (4bR,7S,8aS,9R)-11-(cyclopropylmethyl)-8a-hydroxy-3-methoxy-7-(2-methoxyethyl)-8,8a,9,10-tetrahydro-5H-9,4b-(epiminoethano)phenanthren-6(7H)-one], the Ki (μ-opioid receptors [1]) was 1960 ± 638 nM, the Ki [3] was 324 ± 48 nM and the EC50 (κ opioid receptor [6]) was 1280 ± 160 nM. For the same molecule, the Emax (κ opioid receptor [6]) was 108 ± 5.57%.
With COc1ccc2c(c1)[C@]13CCN(CC4CC4)[C@H](C2)[C@]1(O)C[C@H](CCOCc1ccccc1)C(=O)C3 [Compound 48, (4bR,7S,8aS,9R)-7-(2-(benzyloxy)ethyl)-11-(cyclopropylmethyl)-8a-hydroxy-3-methoxy-8,8a,9,10-tetrahydro-5H-9,4b-(epiminoethano)phenanthren-6(7H)-one] the Ki (μ-opioid receptors [1]) was 223 ± 32.5 nM, the EC50 (κ opioid receptor [2]) was 362 ± 36.6 nM and the Emax (κ opioid receptor [2]) was 70.3 ± 6.94%. The Ki [3] was 65.3 ± 4.49 nM, the EC50 (μ-opioid receptors [4]) was 463 ± 32.6 nM and the Emax (μ-opioid receptors [4]) was 139 ± 3.21%. For the same molecule, the EC50 (μ-opioid receptors [5]) was 38.6 ± 2.85 nM, the Emax (μ-opioid receptors [5]) was 98 ± 2.65% and the EC50 (κ opioid receptor [6]) was 225 ± 20.1 nM. For the same molecule, the Emax (κ opioid receptor [6]) was 119 ± 4.91%.
Work on COc1ccc2c(c1)[C@]13CCN(CC4CC4)[C@H](C2)[C@]1(O)C[C@H](CCO)C(=O)C3 [Compound 46, (4bR,7S,8aS,9R)-11-(cyclopropylmethyl)-8a-hydroxy-7-(2-hydroxyethyl)-3-methoxy-8,8a,9,10-tetrahydro-5H-9,4b-(epiminoethano)phenanthren-6(7H)-one] yielded a Ki (μ-opioid receptors [1]) of 591 ± 80.3 nM, a Ki [3] of 394 ± 85.2 nM and an EC50 (μ-opioid receptors [5]) of 409 ± 88.5 nM. The Emax (μ-opioid receptors [5]) was 68.7 ± 4.1%, the EC50 (κ opioid receptor [6]) was 1020 ± 110 nM and the Emax (κ opioid receptor [6]) was 109 ± 4.84%.
COc1ccc2c(c1)[C@]13CCN(CC4CC4)[C@H](C2)[C@@H]1C[C@@H](C(C)C)C(=O)C3 [Compound 72, (4bS,7S,8aR,9R)-11-(cyclopropylmethyl)-7-isopropyl-3-methoxy-8,8a,9,10-tetrahydro-5H-9,4b-(epiminoethano)phenanthren-6(7H)-one] showed a Ki (μ-opioid receptors [1]) of 476 ± 118 nM, an EC50 (κ opioid receptor [2]) of 1050 ± 193 nM and an Emax (κ opioid receptor [2]) of 69.3 ± 6.77%. For the same molecule, the Ki [3] was 82.9 ± 1.96 nM, the EC50 (μ-opioid receptors [4]) was 212 ± 48.8 nM and the Emax (μ-opioid receptors [4]) was 101 ± 5.55%. It also gave an EC50 (μ-opioid receptors [5]) of 270 ± 48.2 nM, an Emax (μ-opioid receptors [5]) of 60 ± 6% and an EC50 (κ opioid receptor [6]) of 303 ± 40.4 nM. For the same molecule, the Emax (κ opioid receptor [6]) was 102 ± 2.52%.
O=C(O)C[C@H]1C[C@@]2(O)[C@H]3Cc4ccc(O)cc4[C@@]2(CCN3CC2CC2)CC1=O [Compound 9, 2-((4bR,7R,8aS,9R)-11-(cyclopropylmethyl)-3,8a-dihydroxy-6-oxo-6,7,8,8a,9,10-hexahydro-5H-9,4b-(epiminoethano)phenanthren-7-yl)acetic acid] was tested, and the Ki (μ-opioid receptors [1]) was 6.18 ± 0.76 nM, the EC50 (κ opioid receptor [2]) was 17.3 ± 3.73 nM and the Emax (κ opioid receptor [2]) was 40.8 ± 1.93%. The Ki [3] was 0.97 ± 0.19 nM, the EC50 (μ-opioid receptors [4]) was over 200000 nM and the Emax (μ-opioid receptors [4]) was -1%.
CC(C)[C@H]1C[C@H]2[C@H]3Cc4ccc(O)cc4[C@@]2(CCN3CC2CC2)CC1=O [Compound 74, (4bS,7R,8aR,9R)-11-(cyclopropylmethyl)-3-hydroxy-7-isopropyl-8,8a,9,10-tetrahydro-5H-9,4b-(epiminoethano)phenanthren-6(7H)-one] showed a Ki (μ-opioid receptors [1]) of 7.42 ± 2.25 nM, an EC50 (κ opioid receptor [2]) of 3.52 ± 1 nM and an Emax (κ opioid receptor [2]) of 34 ± 5.86%. It also gave a Ki [3] of 0.33 ± 0.041 nM, an EC50 (μ-opioid receptors [4]) of 2.31 ± 0.6 nM and an Emax (μ-opioid receptors [4]) of 90.3 ± 3.84%. For the same molecule, the EC50 (μ-opioid receptors [5]) was 3.66 ± 0.82 nM, the Emax (μ-opioid receptors [5]) was 46 ± 11% and the EC50 (κ opioid receptor [6]) was 1.42 ± 0.15 nM. It also gave an Emax (κ opioid receptor [6]) of 91.3 ± 3.76%.
